{"source": "patent US20030138375A1", "about": "“Individualization of therapy with Alzheimer's disease agents” (priority 2001, published 2003)", "key": {"[1]": {"tested_on": "individuals with mild to moderate Alzheimer's disease", "conditions": "cited from earlier work"}, "[2]": {"conditions": "cited from earlier work"}, "AAMU-Ab": {"tested_on": "AAMU-Ab", "test": "Competitive antigen ELISA, cross-reactivity of AAMU-Ab", "type": "binding, rabbit", "conditions": "0 = absence of inhibition or inhibition no higher than 40% at 5×10^−3 M", "description": "Buffers and water without additives are filtered through millipore filters and kept for 1 week. BSA, antibodies, Tween™ 20 and horse radish peroxidase conjugates are added to these buffers and water just prior to use. Urine samples are usually collected 4 hours after drinking a cup of coffee (instant or brewed with approximately 100 mg of caffeine per cup) and stored at −80° C. The urine samples are diluted 10 times with sodium phosphate buffer (620 mosm, pH 7.50) and are subsequently diluted with water to give concentrations of AAMU and 1X no higher than 3×10^−6 M in the ELISA. All the pipettings are done with an eight-channel pipette, except those of the antibody and sample solutions. Starting with the last well, 100 μL of a carbonate buffer (100 mM, pH 9.6) containing 2.5 μg mL^−1 antibodies are added to each well. After 90 min. at room temperature, the wells are washed three times with 100 mL of TPB: isotonic sodium phosphate buffer (310 mosm, pH 7.50) containing 0.05% Tween™ 20.\nAfter the initial wash, unoccupied sites are blocked by incubation for 90 min. at room temperature with 100 μL TBP containing 3% BSA. The wells are washed four times with 100 μL TPB. […] The microplate is gently shaken with an orbital shaker at room temperature for 3-4 hours. The wells are washed three times with 100 μL TPB containing 1% BSA and three times with water containing 0.05% Tween™ 20. […]"}}, "note": "Where a name gives a salt, the structure may show the parent alone. Marks after values point to notes of the source that are not given here."}
{"compound": "COc1cc2c(cc1OC)C(=O)C(CC1CCN(Cc3ccccc3)CC1)C2", "note": "(racemic) [Donepezil, (±)-2,3-dihydro-5,6-dimethoxy-2-[[1-(phenylmethyl)-4-piperidinyl]methyl] -1H-inden-1-onehydrochloride]", "values": [{"measurement": "effect size on the ADAS-Cog vs placebo", "setting": "[1]; 5 mg or 10 mg per day, over 24 weeks", "value": "about 3 points"}]}
{"compound": "COc1cc2c(cc1O)C(=O)C(CC1CCN(Cc3ccccc3)CC1)C2", "note": "(stereo not drawn) [6-O-desmethyl donepezil]", "values": [{"measurement": "plasma radioactivity, expressed as a percent of the administered dose", "setting": "[2]; 14C-labeled donepezil", "value": 11, "unit": "%"}, {"measurement": "plasma concentration relative to donepezil", "setting": "[2]; in vivo", "value": "about 20%"}]}
{"compound": "Nc1c2c(nc3ccccc13)CCCC2", "note": "[Tacrine]", "values": [{"measurement": "improvement in cognitive function on the ADAS-Cog", "setting": "[1]; 40 mg four times daily, over 12 weeks", "value": "about 2 points"}, {"measurement": "persons who had to discontinue the drug due to side effects", "setting": "[1]; human, in vivo", "value": "up to half"}]}
{"compound": "O=c1[nH]c(=O)c2[nH]cnc2[nH]1", "note": "[Xanthine]", "values": [{"measurement": "% Cross-Reaction AAMU-Ab", "setting": "AAMU-Ab", "value": "0^a %"}]}
